# Assay results as given in patent US20050043341A1, “3-'Hydroxy-(-4-trifluoromethylphenyl)-methyl-7-spirocyclobutyl-5,6,7 8-tetrahydroquinolin-5-ol derivatives and the use of the same as cholesterol ester transfer protein (cetp) inhibitors” (priority 2001, published 2005).
# Columns and labels:
# CETP = molecular target: T1, CETP (Homo sapiens, UniProt P11597); assay: CETP fluorescence test; assay type: biochemical; settings: CETP from human plasma, 37° C., 4 hours; read-out: IC50 (nM) Fluor. test
# T1 construct: CETP is obtained in partially purified form from human plasma; from tissue; host or cells: human plasma
# T1 sequence (P11597 18-493): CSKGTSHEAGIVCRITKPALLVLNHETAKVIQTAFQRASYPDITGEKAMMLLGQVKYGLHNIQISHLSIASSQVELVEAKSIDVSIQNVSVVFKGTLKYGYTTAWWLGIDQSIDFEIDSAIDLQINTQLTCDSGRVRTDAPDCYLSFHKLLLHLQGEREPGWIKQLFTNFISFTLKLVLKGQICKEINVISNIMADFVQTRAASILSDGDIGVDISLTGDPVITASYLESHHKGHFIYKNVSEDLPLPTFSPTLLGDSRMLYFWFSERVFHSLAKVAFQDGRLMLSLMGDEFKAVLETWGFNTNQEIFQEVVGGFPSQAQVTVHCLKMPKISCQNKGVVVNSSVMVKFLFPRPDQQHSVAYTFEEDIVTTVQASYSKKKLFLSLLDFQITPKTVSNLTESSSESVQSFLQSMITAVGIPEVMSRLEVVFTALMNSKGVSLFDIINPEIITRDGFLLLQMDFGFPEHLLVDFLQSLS
# Method: CETP is obtained in partially purified form from human plasma by differential centrifugation and column chromatography and used for the test. To this end, human plasma is adjusted to a density of 1.21 g per ml using NaBr and centrifuged at 4° C. at 50000 rpm for 18 h. The bottom fraction (d>1.21 g/ml) is applied to a Sephadex® Phenyl-Sepharose 4B (Pharmacia) column, washed with 0.15 M NaCl/0.001 M tris HCl pH 7.4 and then eluted with dist. water. Die CETP-active fractions are pooled, dialysed against 50 mM Na acetate pH 4.5 and applied to a CM-Sepharose® (Pharmacia) column. The mixture is then eluted using a linear gradient (0-1 M NaCl). The pooled CETP fractions are dialysed against 10 mM TrisHCl pH 7.4 and then further purified by chromatography on a Mono Q® column (Pharmacia).
# Measurement of the CETP-catalysed transfer of a fluorescent cholesterol ester between liposomes—modified according to the procedure of Bisgaier et al., J. Lipid Res. 34, 1625 (1993).
# For the production of the donor liposomes, 1 mg of cholesteryl 4,4-difluoro-5,7-dimethyl-4-bora-3a,4a-diaza-s-indacene-3-dodecanoate (cholesteryl BODIPY® FL C12, Molecular Probes) is dissolved in 600 μl of dioxane with 5.35 mg of triolein and 6.67 mg of phosphatidylcholine with gentle warming in an ultrasonic bath and this solution is added very slowly with ultrasonication to 63 ml of 50 mM tris/HCl, 150 mM NaCl, 2 mM EDTA buffer pH 7.3 at RT.
# The suspension is then ultrasonicated under an N2 atmosphere for 30 minutes in the Braukson ultrasonic bath at about 50 watts, the temperature being kept at about 20° C.
# The acceptor liposomes are obtained analogously from 86 mg of cholesteryl oleate, 20 mg of triolein and 100 mg of phosphatidylcholine dissolved in 1.2 ml of dioxane and 114 ml of above buffer by ultrasonication at 50 watts (20° C.) for 30 minutes.
# For testing, a test mix consisting of 1 part of above buffer, 1 part of donor liposomes and 2 parts of acceptor liposomes is used.
# 80 μl of test mix are treated with 1-3 μg of enriched CETP fraction, obtained from human plasma by means of hydrophobic chromatography, and 2 μl of the substance to be investigated in DMSO and incubated at 37° C. for 4 hours.
# The change in the fluorescence at 485/535 nm is a measure of the CE transfer; the inhibition of the transfer in comparison to the control batch without substance is determined.
# Syrian golden hamsters = assay: In vivo activity in Syrian golden hamsters (HDL cholesterol); settings: perorally
# Method: In experiments for the determination of the oral action on lipoproteins and triglycerides, test substance dissolved in DMSO and 0.5% suspended in Tylose are administered perorally by means of a stomach tube to Syrian golden hamsters bred in-house. For the determination of the CETP activity, before the start of the experiment blood is taken by retro-orbital puncture (about 250 μl). The test substances are then administered perorally by means of a stomach tube. The control animals receive identical volumes of solvent without test substance. The feed is then withdrawn from the animals and blood is taken at various times—up to 24 hours after substance administration—by puncture of the retroorbital venous plexus.
# Clotting is terminated by incubation at 4° C. overnight, then centrifugation is carried out for 10 minutes at 6000×g. The content of cholesterol and triglycerides in the serum thus obtained is determined with the aid of modified commercially obtainable enzymatic tests (Ecoline 25 Cholesterol 1.14830.0001 Merck Diagnostica, Ecoline 25 Triglycerides 1.14856.0001 Merck Diagnostica). Serum is suitably diluted using physiological saline solution.
# 10 μl of serum dilution are treated with 200 μl of Ecoline 25 reagent in 96-hole plates and incubated for 10 minutes at room temperature. The optical density is then determined at a wavelength of 490 nm using an automatic plate reader. The triglyceride or cholesterol concentration contained in the samples is determined with the aid of a standard curve measured in parallel.
# The determination of the content of HDL cholesterol is carried out after precipitation of the ApoB-containing lipoproteins (Sigma 352-4 HDL cholesterol reagent) according to the manufacturer's instructions.
# transgenic hCETP mice = assay: In vivo activity in transgenic hCETP mice (HDL); settings: stomach tube
# Method: In experiments for the determination of the oral action on lipoproteins and triglycerides, test substance is administered to transgenic mice using a stomach tube (Dinchuck, Hart, Gonzalez, Karmann, Schmidt, Wirak; BBA (1995), 1295, 301). Before the start of the experiment, blood is taken from the mice retroorbitally in order to determine cholesterol and triglycerides in the serum. The serum is obtained as described above for hamsters by incubation at 4° C. overnight and subsequent centrifugation at 6000×g. […] The change in the parameters measured is expressed as the percentage change compared with the starting value.
IC50 (CETP),Compound,% HDL increase after 24 h (Dose: 2 × 10 mg/kg) (Syrian golden hamsters),% HDL increase after 4 d (Dose: 4 × 10 mg/kg) (transgenic hCETP mice)
12 nM,"CC(C)c1nc2c(c(-c3ccc(F)cc3)c1[C@@H](O)c1ccc(C(F)(F)F)cc1)[C@@H](O)CC1(CCC1)C2 [Example 51, (5S)-2-Isopropyl-4-(4-fluorophenyl)-3-[(S)-hydroxy-(4-trifluoromethylphenyl)-methyl]-7-spirocyclobutyl-5,6,7,8-tetrahydroquinolin-5-ol]",17%,57%
30 nM,"CC(C)c1nc2c(c(-c3ccccc3)c1[C@@H](O)c1ccc(C(F)(F)F)cc1)[C@@H](O)CC1(CCC1)C2 [Example 53, (5S)-2-Isopropyl-4-phenyl-3-[(S)-hydroxy-(4-trifluoromethylphenyl)-methyl]-7-spirocyclobutyl-5,6,7,8-tetrahydroquinolin-5-ol]",19%,
30 nM,"CC(C)c1nc2c(c(-c3cccs3)c1[C@@H](O)c1ccc(C(F)(F)F)cc1)[C@@H](O)CC1(CCC1)C2 [Example 61, (5S)-2-Isopropyl-4-(2-thienyl)-3-[(S)-hydroxy-(4-trifluoromethylphenyl)-methyl]-7-spirocyclobutyl-5,6,7,8-tetrahydroquinolin-5-ol]",,
